Experimental data published in patent US9340590B2 (priority 2011, dated 2016).
Positions of bridges follow the written chain, without caps; N, C: chain ends. Non-standard residues stand in square brackets, D forms with d. Residues, ends and D or L forms follow the SMILES beside them. *: point of attachment. Phe(4-guanidino) = N=C(N)Nc1ccc(C[C@H](N)C(=O)O)cc1; Pent4ynoyl = C#CCCC(=O)*; Dab = NCC[C@H](N)C(=O)O; Nva = CCC[C@H](N)C(=O)O; Abu = CC[C@H](N)C(=O)O

How the values were obtained:
Test in all cases: cell-based
[1] = target: hNav1.3 (Homo sapiens, UniProt Q9NY46); conditions: IonWorks Quattro, use-dependent block, hNav1.3; read-out: IWQ Use Nav1.3
hNav1.3, sequence (Q9NY46 whole entry, looked up): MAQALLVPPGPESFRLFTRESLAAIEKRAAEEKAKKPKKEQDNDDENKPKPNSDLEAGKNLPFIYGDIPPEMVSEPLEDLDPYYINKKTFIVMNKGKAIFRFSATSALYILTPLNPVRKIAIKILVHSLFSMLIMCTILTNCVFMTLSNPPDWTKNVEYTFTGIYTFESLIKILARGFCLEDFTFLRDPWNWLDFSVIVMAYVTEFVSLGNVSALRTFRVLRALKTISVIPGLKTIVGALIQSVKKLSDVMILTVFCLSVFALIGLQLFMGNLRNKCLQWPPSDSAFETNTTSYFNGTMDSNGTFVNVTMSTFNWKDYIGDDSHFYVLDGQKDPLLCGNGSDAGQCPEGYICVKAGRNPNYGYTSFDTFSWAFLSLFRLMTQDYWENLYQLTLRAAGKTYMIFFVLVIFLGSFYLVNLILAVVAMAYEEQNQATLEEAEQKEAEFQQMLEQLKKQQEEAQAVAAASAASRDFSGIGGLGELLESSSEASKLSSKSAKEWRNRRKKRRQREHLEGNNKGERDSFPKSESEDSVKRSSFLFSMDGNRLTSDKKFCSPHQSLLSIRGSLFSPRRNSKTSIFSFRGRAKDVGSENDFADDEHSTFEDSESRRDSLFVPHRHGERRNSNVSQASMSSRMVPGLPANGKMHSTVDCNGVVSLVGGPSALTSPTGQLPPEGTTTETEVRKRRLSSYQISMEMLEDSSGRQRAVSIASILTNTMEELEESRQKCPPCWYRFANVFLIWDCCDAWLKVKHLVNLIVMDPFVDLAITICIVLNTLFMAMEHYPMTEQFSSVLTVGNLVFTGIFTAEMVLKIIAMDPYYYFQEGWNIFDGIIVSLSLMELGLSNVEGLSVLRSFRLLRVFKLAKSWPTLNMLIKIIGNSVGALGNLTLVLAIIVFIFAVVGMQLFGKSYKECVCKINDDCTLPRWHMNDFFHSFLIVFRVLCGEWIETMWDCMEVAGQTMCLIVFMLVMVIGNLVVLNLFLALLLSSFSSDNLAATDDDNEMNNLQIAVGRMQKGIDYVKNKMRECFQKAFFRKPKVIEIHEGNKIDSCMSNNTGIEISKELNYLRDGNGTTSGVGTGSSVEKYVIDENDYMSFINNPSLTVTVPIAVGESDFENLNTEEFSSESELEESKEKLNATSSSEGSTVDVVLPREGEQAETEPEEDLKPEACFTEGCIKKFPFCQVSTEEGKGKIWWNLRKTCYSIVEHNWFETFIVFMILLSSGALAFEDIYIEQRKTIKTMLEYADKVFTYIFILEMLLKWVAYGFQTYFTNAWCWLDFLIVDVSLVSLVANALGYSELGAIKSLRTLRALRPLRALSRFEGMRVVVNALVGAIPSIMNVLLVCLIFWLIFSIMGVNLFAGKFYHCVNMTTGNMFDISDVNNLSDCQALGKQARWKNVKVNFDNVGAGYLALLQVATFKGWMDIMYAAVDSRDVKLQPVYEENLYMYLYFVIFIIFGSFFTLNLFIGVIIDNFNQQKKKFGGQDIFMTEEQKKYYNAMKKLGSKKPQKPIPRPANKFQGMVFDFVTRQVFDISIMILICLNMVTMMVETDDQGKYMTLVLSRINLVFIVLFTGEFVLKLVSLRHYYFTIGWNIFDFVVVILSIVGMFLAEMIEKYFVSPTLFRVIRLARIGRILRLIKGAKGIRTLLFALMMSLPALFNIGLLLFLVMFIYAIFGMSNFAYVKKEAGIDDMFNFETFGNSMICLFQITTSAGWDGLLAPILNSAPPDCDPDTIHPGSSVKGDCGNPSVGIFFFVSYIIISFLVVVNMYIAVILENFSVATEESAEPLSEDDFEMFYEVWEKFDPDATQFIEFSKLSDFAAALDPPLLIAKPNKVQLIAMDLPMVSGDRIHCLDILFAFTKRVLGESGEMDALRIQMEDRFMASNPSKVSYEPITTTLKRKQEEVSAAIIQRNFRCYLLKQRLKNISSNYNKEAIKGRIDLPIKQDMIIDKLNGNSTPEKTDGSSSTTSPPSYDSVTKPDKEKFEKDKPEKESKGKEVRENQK

[2] = target: hNav1.5 (Homo sapiens, UniProt Q14524); conditions: IonWorks Quattro, use-dependent block, hNav1.5; read-out: IWQ Use Nav1.5
hNav1.5, sequence (Q14524 whole entry, looked up): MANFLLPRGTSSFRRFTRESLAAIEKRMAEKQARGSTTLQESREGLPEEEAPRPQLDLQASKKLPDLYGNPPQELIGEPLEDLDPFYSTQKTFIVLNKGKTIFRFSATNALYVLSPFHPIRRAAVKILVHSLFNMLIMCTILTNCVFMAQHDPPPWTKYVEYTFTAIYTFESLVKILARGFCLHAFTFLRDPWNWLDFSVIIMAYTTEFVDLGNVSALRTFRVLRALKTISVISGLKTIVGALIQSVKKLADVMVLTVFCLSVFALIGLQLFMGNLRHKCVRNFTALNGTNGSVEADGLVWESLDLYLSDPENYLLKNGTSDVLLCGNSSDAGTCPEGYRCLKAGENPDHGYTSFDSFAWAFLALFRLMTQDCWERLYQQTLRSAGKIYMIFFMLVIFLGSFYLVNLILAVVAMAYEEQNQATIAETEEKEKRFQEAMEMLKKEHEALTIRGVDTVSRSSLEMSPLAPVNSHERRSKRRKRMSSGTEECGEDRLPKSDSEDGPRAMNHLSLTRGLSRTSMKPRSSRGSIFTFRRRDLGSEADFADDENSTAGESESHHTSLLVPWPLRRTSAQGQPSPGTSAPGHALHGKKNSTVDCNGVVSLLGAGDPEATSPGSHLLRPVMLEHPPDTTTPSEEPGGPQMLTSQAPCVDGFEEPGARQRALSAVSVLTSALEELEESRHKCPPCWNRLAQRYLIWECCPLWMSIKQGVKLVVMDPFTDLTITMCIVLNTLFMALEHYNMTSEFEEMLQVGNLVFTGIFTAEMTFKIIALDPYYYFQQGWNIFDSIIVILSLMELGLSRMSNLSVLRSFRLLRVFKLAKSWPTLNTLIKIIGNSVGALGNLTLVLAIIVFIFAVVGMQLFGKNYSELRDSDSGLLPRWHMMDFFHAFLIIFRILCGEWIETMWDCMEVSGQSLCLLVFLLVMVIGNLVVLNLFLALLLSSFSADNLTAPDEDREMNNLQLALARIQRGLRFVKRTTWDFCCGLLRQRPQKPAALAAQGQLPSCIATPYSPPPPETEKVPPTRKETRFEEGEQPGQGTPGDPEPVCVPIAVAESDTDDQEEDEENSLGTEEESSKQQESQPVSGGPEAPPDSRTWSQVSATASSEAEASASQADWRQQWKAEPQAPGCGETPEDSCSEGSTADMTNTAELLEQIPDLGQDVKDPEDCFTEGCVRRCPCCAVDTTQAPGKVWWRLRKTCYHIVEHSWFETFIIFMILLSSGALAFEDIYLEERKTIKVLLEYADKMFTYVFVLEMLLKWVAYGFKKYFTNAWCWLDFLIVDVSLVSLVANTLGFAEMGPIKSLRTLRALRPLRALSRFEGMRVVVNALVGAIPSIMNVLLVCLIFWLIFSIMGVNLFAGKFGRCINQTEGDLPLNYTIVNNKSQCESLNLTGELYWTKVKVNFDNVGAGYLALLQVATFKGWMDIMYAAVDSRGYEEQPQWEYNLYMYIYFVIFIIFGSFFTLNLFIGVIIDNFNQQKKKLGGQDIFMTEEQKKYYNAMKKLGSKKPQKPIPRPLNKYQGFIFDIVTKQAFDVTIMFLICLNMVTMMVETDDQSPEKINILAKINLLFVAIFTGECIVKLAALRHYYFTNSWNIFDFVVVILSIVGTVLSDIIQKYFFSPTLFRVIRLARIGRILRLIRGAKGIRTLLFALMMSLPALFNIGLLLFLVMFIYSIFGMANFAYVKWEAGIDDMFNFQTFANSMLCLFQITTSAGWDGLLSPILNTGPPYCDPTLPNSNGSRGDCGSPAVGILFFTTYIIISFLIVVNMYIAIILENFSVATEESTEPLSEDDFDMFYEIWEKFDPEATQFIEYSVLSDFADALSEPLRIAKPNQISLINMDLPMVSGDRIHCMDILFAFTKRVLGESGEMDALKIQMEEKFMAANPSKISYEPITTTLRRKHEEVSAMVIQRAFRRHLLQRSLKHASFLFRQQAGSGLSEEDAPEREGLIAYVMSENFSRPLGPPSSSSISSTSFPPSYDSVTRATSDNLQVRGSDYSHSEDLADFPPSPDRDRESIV

[3] = target: hNav1.7 (Homo sapiens, UniProt Q15858); assay type: cell-based; conditions: IonWorks Quattro, use-dependent block, hNav1.7; read-out: IWQ Use Nav1.7

Row | Structure (SMILES) | IC50 [1] [nM] | IC50 [2] [nM] | IC50 [3] [nM]
1 | CC[C@H](C)[C@@H]1NC(=O)[C@@H]2CSSC[C@@H]3NC(=O)[C@H](C(C)C)NC(=O)[C@H](CC(C)C)NC(=O)[C@H](CC(N)=O)NC(=O)[C@@H]4CCCN4C(=O)[C@H](CCCNC(=N)N)NC(=O)[C@H](CSSC[C@H](NC(=O)[C@@H](N)CC(=O)O)C(=O)N[C@@H](CC(C)C)C(=O)NCC(=O)NCC(=O)N[C@@H](Cc4ccccc4)C(=O)N[C@@H](CCCNC(=N)N)C(=O)N[C@@H](CCCCN)C(=O)N2)NC(=O)[C@H](CSSC[C@@H](C(=O)N[C@@H](CCCCN)C(=O)N[C@@H](Cc2ccc(O)cc2)C(=O)N[C@H](C(=O)N[C@@H](Cc2ccccc2)C(N)=O)C(C)C)NC(=O)[C@H](Cc2c[nH]c4ccccc24)NC(=O)[C@H](CCC(=O)O)NC(=O)[C@H](Cc2c[nH]cn2)NC(=O)[C@H]([C@@H](C)O)NC(=O)[C@H](CCCNC(=N)N)NC(=O)[C@H](CO)NC3=O)NC(=O)[C@H](CCCCN)NC(=O)[C@H](CC(=O)O)NC(=O)[C@H](CC(N)=O)NC(=O)[C@H](CC(=O)O)NC(=O)[C@@H]2CCCN2C1=O [compound 755] (H-DCLGGFRKCIPDNDKCCRPNLVCSRTHEWCKYVF-NH2; disulfide 2-17, 9-23, 16-30) | > 5000 | 15300 | > 5000
2 | C#CCCC(=O)N[C@@H](CC(=O)O)C(=O)N[C@H]1CSSC[C@@H]2NC(=O)[C@@H]3CSSC[C@@H](C(=O)N[C@@H](CCCCN)C(=O)N[C@@H](Cc4ccc(O)cc4)C(=O)N[C@H](C(=O)N[C@@H](Cc4ccccc4)C(N)=O)C(C)C)NC(=O)[C@H](Cc4c[nH]c5ccccc45)NC(=O)[C@H](CCCNC(=N)N)NC(=O)[C@H](Cc4c[nH]cn4)NC(=O)[C@H]([C@@H](C)O)NC(=O)[C@H](CCCNC(=N)N)NC(=O)[C@H](CO)NC(=O)[C@H](CSSC[C@H](NC(=O)[C@H](CCCCN)NC(=O)[C@H](CCCNC(=N)N)NC(=O)[C@H](Cc4ccccc4)NC(=O)[C@H](C)NC(=O)CNC(=O)[C@H](CC(C)C)NC1=O)C(=O)N[C@@H]([C@@H](C)CC)C(=O)N1CCC[C@H]1C(=O)N[C@@H](CC(=O)O)C(=O)N[C@@H](CC)C(=O)N[C@@H](CC(=O)O)C(=O)N[C@@H](CCCCN)C(=O)N3)NC(=O)[C@H](C(C)C)NC(=O)[C@H](CC(C)C)NC(=O)[C@H](CC(N)=O)NC(=O)[C@@H]1CCCN1C(=O)[C@H](CCCNC(=N)N)NC2=O [compound 756] (Pent4ynoyl-DCLGAFRKCIPD[Abu]DKCCRPNLVCSRTHRWCKYVF-NH2; disulfide 2-17, 9-23, 16-30) | 260 | 44400 | 180
3 | C#CCCC(=O)N[C@@H](CC(=O)O)C(=O)N[C@H]1CSSC[C@@H]2NC(=O)[C@@H]3CSSC[C@@H](C(=O)N[C@@H](CCCCN)C(=O)N[C@@H](Cc4ccc(O)cc4)C(=O)N[C@H](C(=O)N[C@@H](Cc4ccccc4)C(N)=O)C(C)C)NC(=O)[C@H](Cc4c[nH]c5ccccc45)NC(=O)[C@H](CCCCN)NC(=O)[C@H](Cc4c[nH]cn4)NC(=O)[C@H]([C@@H](C)O)NC(=O)[C@H](CCCNC(=N)N)NC(=O)[C@H](CO)NC(=O)[C@H](CSSC[C@H](NC(=O)[C@H](CCCCN)NC(=O)[C@H](CCCNC(=N)N)NC(=O)[C@H](Cc4ccccc4)NC(=O)[C@H](C)NC(=O)CNC(=O)[C@H](CC(C)C)NC1=O)C(=O)N[C@@H]([C@@H](C)CC)C(=O)N1CCC[C@H]1C(=O)N[C@@H](CC(=O)O)C(=O)N[C@@H](CC)C(=O)N[C@@H](CC(=O)O)C(=O)N[C@@H](CCCCN)C(=O)N3)NC(=O)[C@H](C(C)C)NC(=O)[C@H](CC(C)C)NC(=O)[C@H](CC(N)=O)NC(=O)[C@@H]1CCCN1C(=O)[C@H](CCCNC(=N)N)NC2=O [compound 757] (Pent4ynoyl-DCLGAFRKCIPD[Abu]DKCCRPNLVCSRTHKWCKYVF-NH2; disulfide 2-17, 9-23, 16-30) | 280 | 34900 | 710
4 | C#CCCC(=O)N[C@@H](CC(=O)O)C(=O)N[C@H]1CSSC[C@@H]2NC(=O)[C@@H]3CSSC[C@@H](C(=O)N[C@@H](CCCCN)C(=O)N[C@@H](Cc4ccc(O)cc4)C(=O)N[C@H](C(=O)N[C@@H](Cc4ccccc4)C(N)=O)C(C)C)NC(=O)[C@H](Cc4c[nH]c5ccccc45)NC(=O)[C@H](CCCCN)NC(=O)[C@H](Cc4c[nH]cn4)NC(=O)[C@H]([C@@H](C)O)NC(=O)[C@H](CCCNC(=N)N)NC(=O)[C@H](CO)NC(=O)[C@H](CSSC[C@H](NC(=O)[C@H](CCCCN)NC(=O)[C@H](CCCNC(=N)N)NC(=O)[C@H](CC(C)C)NC(=O)[C@H](CC)NC(=O)CNC(=O)[C@H](CC(C)C)NC1=O)C(=O)N[C@@H]([C@@H](C)CC)C(=O)N1CCC[C@H]1C(=O)N[C@@H](CC(=O)O)C(=O)N[C@@H](CC)C(=O)N[C@@H](CC(=O)O)C(=O)N[C@@H](CCCCN)C(=O)N3)NC(=O)[C@H](C(C)C)NC(=O)[C@H](CC(C)C)NC(=O)[C@H](CC(N)=O)NC(=O)[C@@H]1CCCN1C(=O)[C@H](CCCNC(=N)N)NC2=O [compound 758] (Pent4ynoyl-DCLG[Abu]LRKCIPD[Abu]DKCCRPNLVCSRTHKWCKYVF-NH2; disulfide 2-17, 9-23, 16-30) | 690 | 32700 | 460
5 | C#CCCC(=O)N[C@@H](CC(=O)O)C(=O)N[C@H]1CSSC[C@@H]2NC(=O)[C@@H]3CSSC[C@@H](C(=O)N[C@@H](CCCCN)C(=O)N[C@@H](Cc4ccc(O)cc4)C(=O)N[C@H](C(=O)N[C@@H](Cc4ccccc4)C(N)=O)C(C)C)NC(=O)[C@H](Cc4c[nH]c5ccccc45)NC(=O)[C@H](CCCNC(=N)N)NC(=O)[C@H](Cc4c[nH]cn4)NC(=O)[C@H]([C@@H](C)O)NC(=O)[C@H](CCCNC(=N)N)NC(=O)[C@H](CO)NC(=O)[C@H](CSSC[C@H](NC(=O)[C@H](CCCCN)NC(=O)[C@H](CCCNC(=N)N)NC(=O)[C@H](CC(C)C)NC(=O)[C@H](CCC)NC(=O)CNC(=O)[C@H](CC(C)C)NC1=O)C(=O)N[C@@H]([C@@H](C)CC)C(=O)N1CCC[C@H]1C(=O)N[C@@H](CC(=O)O)C(=O)N[C@@H](CC)C(=O)N[C@@H](CC(=O)O)C(=O)N[C@@H](CCCCN)C(=O)N3)NC(=O)[C@H](C(C)C)NC(=O)[C@H](CC(C)C)NC(=O)[C@H](CC(N)=O)NC(=O)[C@@H]1CCCN1C(=O)[C@H](CCCNC(=N)N)NC2=O [compound 759] (Pent4ynoyl-DCLG[Nva]LRKCIPD[Abu]DKCCRPNLVCSRTHRWCKYVF-NH2; disulfide 2-17, 9-23, 16-30) | 230 | 46200 | 100
6 | C#CCCC(=O)N[C@@H](CC(=O)O)C(=O)N[C@H]1CSSC[C@@H]2NC(=O)[C@@H]3CSSC[C@@H](C(=O)N[C@@H](CCCCN)C(=O)N[C@@H](Cc4ccc(O)cc4)C(=O)N[C@H](C(=O)N[C@@H](Cc4ccccc4)C(N)=O)C(C)C)NC(=O)[C@H](Cc4c[nH]c5ccccc45)NC(=O)[C@H](CCCCN)NC(=O)[C@H](Cc4c[nH]cn4)NC(=O)[C@H]([C@@H](C)O)NC(=O)[C@H](CCCNC(=N)N)NC(=O)[C@H](CO)NC(=O)[C@H](CSSC[C@H](NC(=O)[C@H](CCCCN)NC(=O)[C@H](CCCNC(=N)N)NC(=O)[C@H](CC(C)C)NC(=O)[C@H](CCC)NC(=O)CNC(=O)[C@H](CC(C)C)NC1=O)C(=O)N[C@@H]([C@@H](C)CC)C(=O)N1CCC[C@H]1C(=O)N[C@@H](CC(=O)O)C(=O)N[C@@H](CC)C(=O)N[C@@H](CC(=O)O)C(=O)N[C@@H](CCCCN)C(=O)N3)NC(=O)[C@H](C(C)C)NC(=O)[C@H](CC(C)C)NC(=O)[C@H](CC(N)=O)NC(=O)[C@@H]1CCCN1C(=O)[C@H](CCCNC(=N)N)NC2=O [compound 760] (Pent4ynoyl-DCLG[Nva]LRKCIPD[Abu]DKCCRPNLVCSRTHKWCKYVF-NH2; disulfide 2-17, 9-23, 16-30) | 250 | 35200 | 190
7 | CC[C@H](C)[C@@H]1NC(=O)[C@@H]2CSSC[C@@H]3NC(=O)[C@H](C(C)C)NC(=O)[C@H](CC(C)C)NC(=O)[C@H](CC(N)=O)NC(=O)[C@@H]4CCCN4C(=O)[C@H](CCCNC(=N)N)NC(=O)[C@H](CSSC[C@H](NC(=O)[C@@H](N)CC(=O)O)C(=O)N[C@@H](CC(C)C)C(=O)NCC(=O)N[C@@H](C)C(=O)N[C@@H](CCSC)C(=O)N[C@@H](CCCNC(=N)N)C(=O)N[C@@H](CCCCN)C(=O)N2)NC(=O)[C@H](CSSC[C@@H](C(=O)N[C@@H](CCCCN)C(=O)N[C@@H](Cc2ccc(O)cc2)C(=O)N[C@H](C(=O)N[C@@H](Cc2ccccc2)C(N)=O)C(C)C)NC(=O)[C@H](Cc2c[nH]c4ccccc24)NC(=O)[C@H](Cc2ccc(NC(=N)N)cc2)NC(=O)[C@H](Cc2c[nH]cn2)NC(=O)[C@H]([C@@H](C)O)NC(=O)[C@H](CCCNC(=N)N)NC(=O)[C@H](CO)NC3=O)NC(=O)[C@H](CCCCN)NC(=O)[C@H](CC(=O)O)NC(=O)[C@H](CC(N)=O)NC(=O)[C@H](CC(=O)O)NC(=O)[C@@H]2CCCN2C1=O [compound 761] (H-DCLGAMRKCIPDNDKCCRPNLVCSRTH[Phe(4-guanidino)]WCKYVF-NH2; disulfide 2-17, 9-23, 16-30) | 630 | 26900 | 160
8 | CC[C@H](C)[C@@H]1NC(=O)[C@@H]2CSSC[C@@H]3NC(=O)[C@H](C(C)C)NC(=O)[C@H](CC(C)C)NC(=O)[C@H](CC(N)=O)NC(=O)[C@@H]4CCCN4C(=O)[C@H](CCCNC(=N)N)NC(=O)[C@H](CSSC[C@H](NC(=O)[C@@H](N)CC(=O)O)C(=O)N[C@@H](CC(C)C)C(=O)NCC(=O)N[C@@H](C)C(=O)N[C@@H](CCSC)C(=O)N[C@@H](CCCNC(=N)N)C(=O)N[C@@H](CCCCN)C(=O)N2)NC(=O)[C@H](CSSC[C@@H](C(=O)N[C@@H](CCCCN)C(=O)N[C@@H](Cc2ccc(O)cc2)C(=O)N[C@H](C(=O)N[C@@H](Cc2ccccc2)C(N)=O)C(C)C)NC(=O)[C@H](Cc2c[nH]c4ccccc24)NC(=O)[C@H](CCN)NC(=O)[C@H](Cc2c[nH]cn2)NC(=O)[C@H]([C@@H](C)O)NC(=O)[C@H](CCCNC(=N)N)NC(=O)[C@H](CO)NC3=O)NC(=O)[C@H](CCCCN)NC(=O)[C@H](CC(=O)O)NC(=O)[C@H](CC(N)=O)NC(=O)[C@H](CC(=O)O)NC(=O)[C@@H]2CCCN2C1=O [compound 762] (H-DCLGAMRKCIPDNDKCCRPNLVCSRTH[Dab]WCKYVF-NH2; disulfide 2-17, 9-23, 16-30) | 860 | 23300 | 320
